According to the supplement of paper PMC10307832:

How the values were obtained:
Assay in all cases: relative viability (nuclei count vs DMSO), 5 days (fraction); higher = more cells survive
[1] = compound: CC1CC(=O)N(C2=CN=C(N=C2N1C3CCCC3)NC4=C(C=C(C=C4)C(=O)NC5CCN(CC5)C)OC)C [NPK76-II-72-1] + CC(C)C[C@H](NC(=O)[C@H](Cc1ccccc1)NC(=O)c1cnccn1)B(O)O [Bortezomib] (partner 0.002 µM)
How it was run: (§1)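 The day after seeding in 1536-well plates, lung cancer cell lines were treated by pin tool with a single drug, or with a fixed anchor-drug dose together with five library-drug doses (not always all listed) in √10 steps. After 5 days, a combined fix-and-stain solution (final 0.05% Triton X-100, 1% formaldehyde, 1 ug/ml Hoechst) was added. Nuclei counted on 4× images gave relative viability as treated counts over vehicle counts, reported as the median of duplicate plates.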

[2] = compound: CC1CC(=O)N(C2=CN=C(N=C2N1C3CCCC3)NC4=C(C=C(C=C4)C(=O)NC5CCN(CC5)C)OC)C [NPK76-II-72-1] + O=C(CCCCCCC(=O)Nc1ccccc1)NO [Vorinostat] (partner 1 µM)
How it was run: as §1

[3] = compound: CC1CC(=O)N(C2=CN=C(N=C2N1C3CCCC3)NC4=C(C=C(C=C4)C(=O)NC5CCN(CC5)C)OC)C [NPK76-II-72-1] + CCNC(=O)c1noc(-c2cc(C(C)C)c(O)cc2O)c1-c1ccc(CN2CCOCC2)cc1 [Luminespib] (partner 0.01 µM)
How it was run: as §1

[4] = compound: CC1CC(=O)N(C2=CN=C(N=C2N1C3CCCC3)NC4=C(C=C(C=C4)C(=O)NC5CCN(CC5)C)OC)C [NPK76-II-72-1] + C[C@@H](Oc1cc(-c2cnn(C3CCNCC3)c2)cnc1N)c1c(Cl)ccc(F)c1Cl [Crizotinib] (partner 1 µM)
How it was run: as §1

## UMC-11
[1]; first compound 0.01 µM
  relative viability: 0.743
[1]; first compound 0.03162 µM
  relative viability: 0.605
[1]; first compound 0.1 µM
  relative viability: 0.773
[1]; first compound 0.3162 µM
  relative viability: 0.659
[1]; first compound 1 µM
  relative viability: 0.788
[2]; first compound 0.01 µM
  relative viability: 0.358
[2]; first compound 0.03162 µM
  relative viability: 0.365
[2]; first compound 0.1 µM
  relative viability: 0.334
[2]; first compound 0.3162 µM
  relative viability: 0.392
[2]; first compound 1 µM
  relative viability: 0.309
[3]; first compound 0.01 µM
  relative viability: 0.997
[3]; first compound 0.03162 µM
  relative viability: 1
[3]; first compound 0.1 µM
  relative viability: 0.934
[3]; first compound 1 µM
  relative viability: 0.988
[4]; first compound 0.01 µM
  relative viability: 0.622
[4]; first compound 0.03162 µM
  relative viability: 0.574
[4]; first compound 0.1 µM
  relative viability: 0.669
[4]; first compound 0.3162 µM
  relative viability: 0.532
[4]; first compound 1 µM
  relative viability: 0.707
